Here are results for 1 molecule from US20200352912A1, “ANTIMICROBIAL COMPOSITIONS AND METHODS OF USING THE SAME” (The Board Of Supervisors Of Louisiana State University And …, priority 2018, published 2020).

Structures are written as SMILES.

Assay [1] deals with C. albicans pre-formed biofilm. Briefly: pre-formed mature biofilm (XTT, CFU). Format: cell-based, Candida albicans. The settings on record: all concentrations tested, 24 h treatment. On the procedure: The effect of L-161, 982 on pre-formed mature biofilms was tested. Mono- and dual-species C. albicans and/or S. aureus biofilms were grown on 96-well plates for 24 h before being treated with the indicated concentration of L-161, 982 for a further 24 h. After treatment, metabolic activity of biofilms was quantified by the XTT assay (A) and then biofilms were disrupted to determine live colony forming units (CFU) (B). The results are cumulative of three independent experiments with duplicate samples. Statistics were performed using One-way ANOVA with the Tukey post-hoc test for the XTT assay. The Mann-Whitney U test was used to analyze CFU data. Significance is indicated as follows: ns—not significant, *P<0.05; *** P<0.001. Error bars represent standard deviation.
Following growth as described above, microbes were washed in phosphate-buffered saline (PBS) by centrifugation, counted on a hemocytometer, and adjusted to 2×10^7 CFU/ml in RPMI buffered with MOPS (165 mM). […]
The XTT reduction assay was used to determine the metabolic activity of biofilms following treatment with L-161, 982 (17). Briefly, wells were washed once in PBS, and plates incubated at 37° C. for 2 h with 200 μl XTT working reagent (0.5 mg/ml XTT and 1 μM Menadione) and the resulting absorbance measured at 490 nm on a microplate spectrophotometer. […]

The subject of assay [2] is S. aureus strain 43300. Briefly: staphyloxanthin assay. In kind it is cell-based, Staphylococcus aureus. How it is done: Pigment (staphyloxanthin) levels were measured from cultures grown in Mueller-Hinton broth+/−L-161, 982 at 37° C. for 24 h. A) Macroscopic analysis of S. aureus pigment production. B) Pigment was extracted in methanol and optical density measured at 450 nm. Data shown are representative of two independent experiments. *** p<0.001 control vs. drug-treated.
Strains and growth conditions. The methicillin-resistant S. aureus strain NRS383 was obtained from the Network on Antimicrobial Resistance in S. aureus (NARSA) data bank. As NRS383 has little or no hemolytic activity or pigmentation, S. aureus strain 43300 (ATCC) was used for the hemolysis and staphyloxanthin assays. Frozen stocks were obtained at −80° C. and streaked onto trypticase soy agar (TSA) plates at 37° C. prior to use. A single colony was transferred to 10 ml of trypticase soy broth (TSB) and shaken at 37° C. overnight. On the following day, the overnight culture was diluted 1:100 in fresh growth medium and shaken at 37° C. for 3 h to obtain cells in mid-log growth phase.
Staphyloxanthin Assay. S. aureus was diluted 100-fold in 50 ml of TSB containing 50 or 100 μg/ml of L-161,982 and cultured shaking at 37° C. for 48 h. Control cultures were grown in broth alone. […] Cells from each culture were counted and normalized. […] Optical densities of supernatants were measured at 465 nm using a spectrophotometer.

As for `CCCCc1nn(-c2ccccc2C(F)(F)F)c(=O)n1Cc1ccc(-c2ccccc2S(=O)(=O)NC(=O)c2sccc2C)cc1` [L-161, 982, N-[[4′-[[3-Butyl-1,5-dihydro-5-oxo-1-[2-(trifluoromethyl)phenyl]-4H-1,2,4-triazol-4-yl]methyl][1,1′-biphenyl]-2-yl]sulfonyl]-3-methyl-2-thiophenecarboxamide], the “metabolic activity of pre-formed biofilm” value in assay [1] is reported as “no significant inhibitory effects”. Further, the “pigmentation (staphyloxanthin)” value in assay [2] is “loss of yellow pigmentation”.
